# Where two headings read alike, the source gives them in different places.
# Assays:
# MEK1 = target: T1, MEK1 (Homo sapiens, UniProt Q02750); assay: MEK1 kinase cascade assay (ADP-Glo), inhibition of MEK1 kinase activity; type: biochemical; details: 25 nM BRAF, 6.25 nM MEK1, 0.5 μM ERK, 1 mM ATP; 20 min preincubation, 1 hr at 25° C.; read-out: BRAF ADP Glo kinase assay V3 (IC50)
# T1 construct: purchased SignalChem M02-14H
# How it was run: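 Cascade format with ADP-Glo read-out: BRAF (25 nM) and compound, 1% DMSO, 20 mins at 25° C, then MEK1 6.25 nM, ERK1 0.5 μM, ATP 1 mM for 1 hr at 25° C in HEPES pH 7.5 buffer with MgCl2, CHAPS and DTT. Percent inhibition, scaled between DMSO and 1 μM Trametinib, was fit by 4-parameter logistic to give IC50 (2 replicate wells).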
# BRAF-MEK1 = assay: BRAF-MEK TR-FRET assay, stabilization of MEK1 and BRAF interaction; type: binding; details: 4 nM BRAF, 10 nM MEK, 100 μM ATP, 1 hr at 25° C., read-out: BRAF-MEK TR-FRET Assay (EC50, fold stabilization)
# From the text: Protein expression and purification: BRAF (445-723) with N-term His-tag and C-term StrepII tag was expressed using the Expi293 system (ThermoFisher) and purified using Strep-Tactin® XT-Superflow (IBA) chromatography. ERK1 (full-length) with N-term His-tag was expressed in Rosetta DE3 cells (Millipore) and purified using HisTrap HP (Cytiva) and Superdex 200 (Cytiva) column chromatography. Full-length MEK1 for TR-FRET assays with N-term His-tag was expressed in BL21DE3 cells (ThermoFisher) and purified using HisTrap HP (Cytiva) and Superdex 200 (Cytiva) column chromatography.
# Efficacy of exemplary compounds in stabilization of MEK1 and BRAF interaction: Compound stabilization of BRAF-MEK interaction was evaluated using TR-FRET (Time Resolved Fluorescence Energy Transfer). The FRET assay consisted of His-tagged MEK1 (produced in-house), GST-tagged BRAF (SignalChem, B08-11G), Anti His-Tb Cryptate donor, and Anti GST-XL665 acceptor fluorophores (PerkinElmer) to generate FRET signal upon BRAF-MEK1 binding. Compounds were prepared from DMSO stocks in assay buffer (50 mM Tris pH 7.5, 150 mM NaCl, 1 mM DTT, 0.05% Tween-20, 5 mM MgCl2, and 100 μM ATP) and incubated with 4 nM BRAF and 10 nM MEK for 1 hr at 25° C. 1 ng Anti His-Tb Cryptate/20 ng Anti GST-XL665 premix was then added and incubated for 1 hr at 25° C. TR-FRET was measured using Cytation5 microplate reader (Agilent) using Ex/Em=340/620 nm and Ex/Em=340/665 nm to determine the FRET ratio. Fold stabilization was calculated as FRET signal of treated well/DMSO control. Fold stabilization as a function of compound concentration from 2 replicate wells was fit with a 4-parameter logistic curve equation using GraphPad Prism or CDD Vault to derive EC50 values.
# In this table, for the BRAF ADP Glo kinase assay, “A” indicates IC50 of less than 5 nM; “B” indicates IC50 of between 5 nM to 50 nM; and “C” indicates IC50 of between 50 nM to 500 nM. “D” indicates IC50 of greater than 500 nM. For the BRAF-MEK TR-FRET assay, “A” indicates EC50 of less than 50 nM; “B” indicates EC50 of between 50 nM to 200 nM; and “C” indicates EC50 of between 200 nM to 1 μM. “D′” indicates EC50 of greater than 1 μM. For the AlphaLisa P-ERK assay, “A” indicates IC50 of less than 1 nM; “B” indicates IC50 of between 1 nM to 10 nM; and “C” indicates IC50 of between 10 nM to 100 nM. “D” indicates IC50 of greater than 100 nM. For the cell viability assay, “A” indicates IC50 of less than 1 nM; “B” indicates IC50 of between 1 nM to 10 nM; and “C” indicates IC50 of between 10 nM to 100 nM. “D” indicates IC50 of greater than 100 nM.
# T1 sequence (Q02750 whole entry): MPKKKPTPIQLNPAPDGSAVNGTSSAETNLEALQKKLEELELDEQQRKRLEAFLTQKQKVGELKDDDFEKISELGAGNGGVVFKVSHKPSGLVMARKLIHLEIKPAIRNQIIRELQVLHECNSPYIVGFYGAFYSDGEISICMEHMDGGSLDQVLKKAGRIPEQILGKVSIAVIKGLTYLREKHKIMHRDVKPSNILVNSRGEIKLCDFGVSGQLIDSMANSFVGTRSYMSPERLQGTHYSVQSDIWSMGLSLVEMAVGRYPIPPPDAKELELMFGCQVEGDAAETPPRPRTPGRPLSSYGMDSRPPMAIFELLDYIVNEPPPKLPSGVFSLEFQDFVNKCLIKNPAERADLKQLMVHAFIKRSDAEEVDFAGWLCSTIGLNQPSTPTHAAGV
# T1 sequence (P15056 445-723 partner limits assumed): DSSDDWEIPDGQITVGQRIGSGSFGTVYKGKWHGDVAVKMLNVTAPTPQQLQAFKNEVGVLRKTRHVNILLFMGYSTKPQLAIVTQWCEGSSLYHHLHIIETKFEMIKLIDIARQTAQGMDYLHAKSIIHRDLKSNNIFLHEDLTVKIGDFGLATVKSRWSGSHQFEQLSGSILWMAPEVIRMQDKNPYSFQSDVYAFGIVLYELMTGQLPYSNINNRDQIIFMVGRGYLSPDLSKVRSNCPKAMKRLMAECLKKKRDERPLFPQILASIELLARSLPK
Structure (SMILES),IC50 (MEK1),EC50 (BRAF-MEK1),EC50 (BRAF-MEK1; 60 min)
"CNS(=O)(=O)Nc1cccc(CN2C(=O)Oc3cc(Oc4ncco4)c(F)cc3C2C)c1F (single isomer, unassigned) [Compound 85, (R)-6-fluoro-3-({2-fluoro-3-(methylsulfamoyl)amino]phenyl}methyl)-4-methyl-7-(1,3-oxazol-2-yloxy)-3,4-dihydro-2H-1,3-benzoxazin-2-one or (S)-6-fluoro-3-({2-fluoro-3-(methylsulfamoyl)amino]phenyl}methyl)-4-methyl-7-(1,3-oxazol-2-yloxy)-3,4-dihydro-2H-1,3-benzoxazin-2-one]",5 to 50 nM,200 to 1000 nM,
"CNS(=O)(=O)Nc1cccc(CN2C(=O)Oc3cc(Oc4cccnn4)cnc3C23CC3)c1F [Compound 201, 2′-{[2-fluoro-3-(methylaminosulfonylamino)phenyl]methyl}-6′-(3-pyridazinyloxy)-2′H,3′H-4′-oxa-2′,8′-diazaspiro[cyclopropane-1,1′-naphthalen]-3′-one]",< 5 nM,< 50 nM,
"CNS(=O)(=O)Nc1cccc(CN2Cc3ccc(Oc4ncco4)c(F)c3OC2=O)c1F [Compound 91, 8-fluoro-3-{[2-fluoro-3-(methylaminosulfonylamino)phenyl]methyl}-7-(1,3-oxazol-2-yloxy)-3,4-dihydro-2H-1,3-benzoxazin-2-one]",< 5 nM,200 to 1000 nM,
"CNS(=O)(=O)Nc1cccc(CN2Cc3cc(F)c(OC(=O)N(C)C)c(F)c3OC2=O)c1F [Compound 96, 6,8-difluoro-3-(2-fluoro-3-((N-methylsulfamoyl)amino)benzyl)-2-oxo-3,4-dihydro-2H-benzo[e][1,3]oxazin-7-yl dimethylcarbamate]",< 5 nM,50 to 200 nM,
"CNS(=O)(=O)Nc1nccc(CN2C(=O)Oc3cc(Oc4cccnn4)cnc3[C@H]2C)c1F (stereo in doubt) [Compound 192, 3-{[3-fluoro-2-(methylaminosulfonylamino)-4 pyridyl]methyl}-4-methyl-7-(3-pyridazinyloxy)-3,4-dihydro-2H-1-oxa-3,5 diazanaphthalen-2-one]",5 to 50 nM,,200 to 1000 nM
"CNS(=O)(=O)Nc1nccc(CN2C(=O)Oc3cc(Oc4cccnn4)ccc3[C@H]2C)c1F (single isomer, unassigned) [Compound 23]",5 to 50 nM,< 50 nM,
"CN(C)C(=O)Oc1ccc2c(c1)OC(=O)N(Cc1cccc(NS(=O)(=O)N(C)C)c1F)C21CCC1 [Compound 33, 3-({3-[(dimethylsulfamoyl)amino]-2-fluorophenyl}methyl)-2-oxo-2,3-dihydrospiro[1,3-benzoxazine-4,1′-cyclobutan]-7-yl N,N-dimethyl carbamate]",5 to 50 nM,50 to 200 nM,
"[2H]C1([2H])c2ccc(Oc3nccnn3)cc2OC(=O)N1Cc1cccc(NS(=O)(=O)NC)c1F [Compound 31, 3-({2-fluoro-3-[(methylsulfamoyl)amino]phenyl}methyl)-7-(1,2,4-triazin-3-yloxy)-3,4-dihydro(4,4-^2 H2)-2H-1,3-benzoxazin-2-one]",5 to 50 nM,< 50 nM,
"O=C1Oc2c(ccc(Oc3nccnn3)c2F)C2(CCC2)N1Cc1ccnc(NS(=O)(=O)C2CC2)c1F [Compound 187, (cyclopropylsulfonyl)[3-fluoro-4-({8-fluoro-2-oxo-7-(1,2,4-triazin-3-yloxy)-2H,3H-spiro[1,3-benzoxazine-4,1′-cyclobutan]-3-yl}methyl)-2-pyridyl]amine]",5 to 50 nM,50 to 200 nM,
"CNS(=O)(=O)Nc1nccc(CN2C(=O)Oc3cc(Oc4cccnn4)cc(F)c3C23COC3)c1F [Compound 178, 5-fluoro-3-{[3-fluoro-2-(methylaminosulfonylamino)-4-pyridyl]methyl}-7-(3-pyridazinyloxy)-2H, 3H-spiro[1,3-benzoxazine-4,3′-oxetan]-2-one]",5 to 50 nM,200 to 1000 nM,
"CNS(=O)(=O)Nc1cccc(CN2C(=O)Oc3cc(Oc4cccnn4)ccc3C23CC3)c1F [Compound 196, 3-{[2-fluoro-3-(methylaminosulfonylamino)phenyl]methyl}-7-(3-pyridazinyloxy)-2H,3H-spiro[1,3-benzoxazine-4,1′-cyclopropan]-2-one]",< 5 nM,< 50 nM,
"C[C@H]1c2c(F)cc(Oc3cccnn3)cc2OC(=O)N1Cc1cccc(NS(=O)(=O)C2CC2)c1F (single isomer, unassigned) [Compound 55]",5 to 50 nM,200 to 1000 nM,
"CNS(=O)(=O)Nc1nccc(CN2C(=O)Oc3cc(Oc4cccnn4)cc(F)c3C23CCC3)c1F [Compound 171, 5-fluoro-3-{[3-fluoro-2-(methylaminosulfonylamino)-4-pyridyl]methyl}-7-(3-pyridazinyloxy)-2H,3H-spiro[1,3-benzoxazine-4,1′-cyclobutan]-2-one]",< 5 nM,< 50 nM,
"CNS(=O)(=O)Nc1nccc(CN2C(=O)Oc3cc(Oc4ncco4)cc(F)c3C23COC3)c1F [Compound 168, 5-fluoro-3-{[3-fluoro-2-(methylaminosulfonylamino)-4-pyridyl]methyl}-7-(1,3-oxazol-2-yloxy)-2H,3H-spiro[1,3-benzoxazine-4,3′-oxetan]-2-one]",5 to 50 nM,200 to 1000 nM,
"CN(C)C(=O)Oc1ccc2c(c1)OC(=O)N(Cc1cccc(NS(=O)(=O)N3CCC(C(N)=O)C3)c1F)C2 (stereo not shown) [Compound 28, 3-[(3-{[(3-carbamoylpyrrolidin-1-yl)sulfonyl]amino}-2-fluorophenyl)methyl]-2-oxo-3,4-dihydro-2H-1,3-benzoxazin-7-yl N,N-dimethylcarbamate]",5 to 50 nM,200 to 1000 nM,
"CNS(=O)(=O)Nc1nccc(CN2C(=O)Oc3cc(Oc4ncco4)cnc3[C@@H]2C)c1F (stereo in doubt) [Compound 191, 3-{[3-fluoro-2-(methylaminosulfonylamino)-4-pyridyl]methyl}-4-methyl-7-(1,3-oxazol-2-yloxy)-3,4-dihydro-2H-1-oxa-3,5-diazanaphthalen-2-one]",50 to 500 nM,50 to 200 nM,
"COC1CCN(S(=O)(=O)Nc2cccc(CN3Cc4ccc(OC(=O)N(C)C)cc4OC3=O)c2F)C1 (stereo not shown) [Compound 100, 3-(2-fluoro-3-((3-methoxypyrrolidine)-1-sulfonamido)benzyl)-2-oxo-3,4-dihydro-2H-benzo[e][1,3]oxazin-7-yl dimethylcarbamate]",5 to 50 nM,200 to 1000 nM,
"CNS(=O)(=O)Nc1nccc(CN2C(=O)Oc3c(ccc(Oc4nccnn4)c3F)C23CCC3)c1F [Compound 177, 8-fluoro-3-{[3-fluoro-2-(methylaminosulfonylamino)-4-pyridyl]methyl}-7-(1,2,4-triazin-3-yloxy)-2H,3H-spiro[1,3-benzoxazine-4,1′-cyclobutan]-2-one]",< 5 nM,< 50 nM,
"C[C@H]1c2ccc(Oc3cccnn3)c(F)c2OC(=O)N1Cc1cccc(NS(=O)(=O)N(C)C)c1F (single isomer, unassigned) [Compound 44]",< 5 nM,200 to 1000 nM,
"CN(C)S(=O)(=O)Nc1cccc(CN2Cc3ccc(Oc4cccnn4)cc3OC2=O)c1F [Compound 37, 3-{[3-(dimethylaminosulfonylamino)-2-fluorophenyl]methyl}-7-(3-pyridazinyloxy)-3,4-dihydro-2H-1,3-benzoxazin-2-one]",5 to 50 nM,50 to 200 nM,

# Source: patent US20260297105A1, “RAF-MEK PROTEIN COMPLEX MODULATORS AND METHODS OF USE THEREOF” (GANDEEVA THERAPEUTICS, INC., priority 2023, published 2026)
